Experimental data: US11174268B2, “Benzenesulfonamide compouds and their use as therapeutic agents” (Xenon Pharmaceuticals Inc., priority 2016, dated 2021)

How the values were obtained:
[1] = target: T1, NaV1.6 (Homo sapiens (Human), UniProt Q9UQD0); assay: Sodium Influx Assay (Flux), NaV1.6; format: cell-based; settings: Trex HEK293 cells, ANG2 dye, inactivated state;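 further: Tetracycline-induced cells, compounds applied for one hour at room temperature with modulators holding channels open, IC50 from percent inhibition of sodium influx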
T1 sequence (Q9UQD0 whole entry): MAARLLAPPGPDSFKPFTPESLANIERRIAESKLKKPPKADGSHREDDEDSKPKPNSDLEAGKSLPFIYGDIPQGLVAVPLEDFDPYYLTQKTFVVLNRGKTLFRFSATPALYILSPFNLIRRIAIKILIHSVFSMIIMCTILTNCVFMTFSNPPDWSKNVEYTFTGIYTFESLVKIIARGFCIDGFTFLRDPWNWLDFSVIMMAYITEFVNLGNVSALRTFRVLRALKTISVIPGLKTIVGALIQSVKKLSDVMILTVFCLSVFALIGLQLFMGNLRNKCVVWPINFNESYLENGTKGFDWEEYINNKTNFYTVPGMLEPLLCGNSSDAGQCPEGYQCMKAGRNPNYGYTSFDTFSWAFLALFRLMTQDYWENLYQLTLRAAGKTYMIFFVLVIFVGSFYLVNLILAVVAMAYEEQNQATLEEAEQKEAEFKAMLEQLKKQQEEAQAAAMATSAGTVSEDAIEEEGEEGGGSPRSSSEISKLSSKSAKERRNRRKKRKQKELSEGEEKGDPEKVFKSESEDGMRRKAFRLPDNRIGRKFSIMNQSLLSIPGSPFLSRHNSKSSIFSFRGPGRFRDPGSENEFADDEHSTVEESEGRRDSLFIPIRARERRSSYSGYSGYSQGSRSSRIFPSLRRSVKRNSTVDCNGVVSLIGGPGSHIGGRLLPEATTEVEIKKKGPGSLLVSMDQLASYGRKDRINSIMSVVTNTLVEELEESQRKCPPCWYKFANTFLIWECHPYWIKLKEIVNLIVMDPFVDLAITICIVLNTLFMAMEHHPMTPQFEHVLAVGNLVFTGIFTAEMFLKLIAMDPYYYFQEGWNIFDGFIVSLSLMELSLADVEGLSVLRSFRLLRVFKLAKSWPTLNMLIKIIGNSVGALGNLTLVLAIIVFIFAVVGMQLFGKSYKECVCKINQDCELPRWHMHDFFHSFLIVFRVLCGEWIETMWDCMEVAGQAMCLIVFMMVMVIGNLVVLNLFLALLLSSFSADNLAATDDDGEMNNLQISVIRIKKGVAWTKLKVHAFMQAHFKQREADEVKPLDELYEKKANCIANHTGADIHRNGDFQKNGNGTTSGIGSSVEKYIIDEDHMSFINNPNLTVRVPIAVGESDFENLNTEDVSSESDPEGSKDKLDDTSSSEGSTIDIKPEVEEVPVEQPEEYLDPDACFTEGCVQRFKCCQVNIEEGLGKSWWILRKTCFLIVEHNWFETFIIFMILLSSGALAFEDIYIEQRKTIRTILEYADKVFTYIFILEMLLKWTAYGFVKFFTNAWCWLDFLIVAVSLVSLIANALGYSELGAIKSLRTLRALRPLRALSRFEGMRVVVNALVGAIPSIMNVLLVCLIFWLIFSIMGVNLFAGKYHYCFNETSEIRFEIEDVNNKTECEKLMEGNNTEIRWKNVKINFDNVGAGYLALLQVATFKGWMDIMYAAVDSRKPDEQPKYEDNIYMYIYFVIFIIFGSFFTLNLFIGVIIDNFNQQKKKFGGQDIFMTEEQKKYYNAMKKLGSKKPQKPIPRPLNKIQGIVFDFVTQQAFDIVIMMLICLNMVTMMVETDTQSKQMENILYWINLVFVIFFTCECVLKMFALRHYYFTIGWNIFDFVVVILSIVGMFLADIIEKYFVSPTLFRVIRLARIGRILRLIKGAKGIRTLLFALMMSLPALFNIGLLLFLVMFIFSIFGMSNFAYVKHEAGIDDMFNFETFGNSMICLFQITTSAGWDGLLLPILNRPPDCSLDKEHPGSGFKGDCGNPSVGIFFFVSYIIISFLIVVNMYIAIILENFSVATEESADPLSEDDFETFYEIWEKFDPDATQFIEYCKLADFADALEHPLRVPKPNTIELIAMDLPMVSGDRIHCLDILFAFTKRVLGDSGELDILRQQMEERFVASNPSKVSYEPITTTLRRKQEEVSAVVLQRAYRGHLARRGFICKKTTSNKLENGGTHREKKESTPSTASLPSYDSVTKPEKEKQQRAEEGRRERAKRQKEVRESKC

[2] = target: T1, NaV1.6; assay: Electrophysiological Assay (EP), patch voltage clamp, NaV1.6; format: cell-based; settings: HEK-293 cells, whole-cell patch clamp;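 further: sodium current recorded at ambient temperature, channels held inactivated then briefly repolarized to −150 mV for 20 ms before a test pulse, control currents in 0.5% DMSO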
[3] = target: T2, NaV1.1 (Homo sapiens (Human), UniProt P35498); assay: Sodium Influx Assay (Flux), NaV1.1; format: cell-based; settings: Trex HEK293 cells, ANG2 dye, inactivated state;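 further: channels co-expressed with human β1 subunit and held open by modulators, cells exposed to compounds for one hour at room temperature, IC50 from percent inhibition of influx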
[4] = target: T2, NaV1.1; assay: Electrophysiological Assay (EP), patch voltage clamp, NaV1.1; format: cell-based; settings: HEK-293 cells, whole-cell patch clamp;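 further: sodium current block measured at ambient temperature, holding at fully inactivating potential, 20 ms repolarization to −150 mV before test pulse, versus 0.5% DMSO control currents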
[5] = target: NaV1.5 (Homo sapiens (Human), UniProt Q14524); assay: Sodium Influx Assay (Flux), NaV1.5; settings: read-out: Flux NaV1.5 IC50; Trex HEK293 cells, ANG2 dye, inactivated state
NaV1.5, sequence (Q14524 other isoform, or with tags, fused parts or gaps): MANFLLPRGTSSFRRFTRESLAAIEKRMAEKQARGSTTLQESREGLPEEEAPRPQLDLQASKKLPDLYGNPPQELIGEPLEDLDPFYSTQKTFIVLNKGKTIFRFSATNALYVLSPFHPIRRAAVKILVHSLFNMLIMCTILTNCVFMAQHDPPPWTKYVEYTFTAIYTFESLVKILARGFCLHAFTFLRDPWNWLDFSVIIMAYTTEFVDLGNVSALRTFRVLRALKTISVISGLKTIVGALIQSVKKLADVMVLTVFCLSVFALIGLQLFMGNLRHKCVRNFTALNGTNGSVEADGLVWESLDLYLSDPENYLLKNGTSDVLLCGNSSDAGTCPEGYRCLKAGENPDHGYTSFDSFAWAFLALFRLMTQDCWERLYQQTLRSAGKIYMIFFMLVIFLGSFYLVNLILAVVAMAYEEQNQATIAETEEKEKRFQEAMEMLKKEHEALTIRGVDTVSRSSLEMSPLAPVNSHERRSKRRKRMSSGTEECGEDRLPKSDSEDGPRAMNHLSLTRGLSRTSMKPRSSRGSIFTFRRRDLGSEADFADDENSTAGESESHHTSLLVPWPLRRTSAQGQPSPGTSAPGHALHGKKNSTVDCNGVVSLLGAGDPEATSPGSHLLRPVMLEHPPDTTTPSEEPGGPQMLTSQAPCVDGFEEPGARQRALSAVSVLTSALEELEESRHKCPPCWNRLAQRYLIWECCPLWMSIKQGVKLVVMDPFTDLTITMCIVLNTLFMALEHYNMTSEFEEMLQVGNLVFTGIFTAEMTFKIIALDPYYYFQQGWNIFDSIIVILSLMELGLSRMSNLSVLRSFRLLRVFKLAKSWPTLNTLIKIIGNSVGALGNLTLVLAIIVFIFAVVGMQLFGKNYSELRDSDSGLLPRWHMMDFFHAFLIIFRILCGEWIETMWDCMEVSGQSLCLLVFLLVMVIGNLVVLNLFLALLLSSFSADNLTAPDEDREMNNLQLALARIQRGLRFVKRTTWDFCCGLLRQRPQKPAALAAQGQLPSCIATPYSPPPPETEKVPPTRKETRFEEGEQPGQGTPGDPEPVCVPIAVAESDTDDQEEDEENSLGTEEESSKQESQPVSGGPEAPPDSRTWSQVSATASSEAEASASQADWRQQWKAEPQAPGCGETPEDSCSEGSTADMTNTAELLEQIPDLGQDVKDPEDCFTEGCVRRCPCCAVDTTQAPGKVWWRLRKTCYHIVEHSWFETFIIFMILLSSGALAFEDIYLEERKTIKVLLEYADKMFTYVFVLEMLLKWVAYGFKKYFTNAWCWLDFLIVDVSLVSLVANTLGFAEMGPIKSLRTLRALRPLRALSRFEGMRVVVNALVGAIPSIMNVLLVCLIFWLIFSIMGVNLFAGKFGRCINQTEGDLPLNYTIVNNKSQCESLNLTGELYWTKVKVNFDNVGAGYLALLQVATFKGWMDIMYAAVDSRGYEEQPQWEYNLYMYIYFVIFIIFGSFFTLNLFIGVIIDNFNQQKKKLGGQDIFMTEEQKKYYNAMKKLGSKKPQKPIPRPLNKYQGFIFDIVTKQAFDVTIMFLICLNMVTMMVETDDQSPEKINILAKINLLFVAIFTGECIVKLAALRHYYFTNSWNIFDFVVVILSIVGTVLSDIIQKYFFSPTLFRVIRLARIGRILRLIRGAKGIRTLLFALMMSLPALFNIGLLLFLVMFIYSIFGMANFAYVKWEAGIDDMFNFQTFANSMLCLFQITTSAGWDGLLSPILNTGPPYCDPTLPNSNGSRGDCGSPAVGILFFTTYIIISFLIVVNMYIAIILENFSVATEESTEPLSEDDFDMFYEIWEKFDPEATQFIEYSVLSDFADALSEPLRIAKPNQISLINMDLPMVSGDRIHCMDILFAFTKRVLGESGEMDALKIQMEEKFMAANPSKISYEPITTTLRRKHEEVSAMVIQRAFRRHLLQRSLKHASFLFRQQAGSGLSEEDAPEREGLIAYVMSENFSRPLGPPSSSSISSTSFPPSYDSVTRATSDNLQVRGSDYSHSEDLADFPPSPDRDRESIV

Structure (SMILES)	IC50 [1]	IC50 [2]	IC50 [3]	IC50 [4]	IC50 [5]
O=S(=O)(Nc1nccs1)c1cc(Cl)c(N[C@H](CN2CCCC2)c2ccccc2)cc1F [Example 70, (S)-5-chloro-2-fluoro-4-((1-phenyl-2-(pyrrolidin-1-yl)ethyl)amino)-N-(thiazol-2-yl)benzenesulfonamide]	0.181 µM	0.036 µM	30 µM	10 µM	30 µM
O=S(=O)(Nc1cccc(F)n1)c1cc(Cl)c(N[C@H](CN2CCCC2)c2ccccc2)cc1F [Example 72, (S)-5-chloro-2-fluoro-N-(6-fluoropyridin-2-yl)-4-((1-phenyl-2-(pyrrolidin-1-yl)ethyl)amino)benzenesulfonamide 2,2,2-trifluoroacetate]	7.11 µM	0.955 µM	30 µM	10 µM	30 µM
O=S(=O)(Nc1cscn1)c1cc(Cl)c(N[C@H](CN2CCCC2)c2ccccc2)cc1F [Example 73, (S)-5-chloro-2-fluoro-4-((1-phenyl-2-(pyrrolidin-1-yl)ethyl)amino)-N-(thiazol-4-yl)benzenesulfonamide]	3.87 µM	1.14 µM	23.1 µM	10 µM	30 µM
O=S(=O)(Nc1nccs1)c1cc(Cl)c(O[C@H](c2ccccc2)C(F)(F)F)cc1F [Example 80, (R)-5-chloro-2-fluoro-N-(thiazol-2-yl)-4-(2,2,2-trifluoro-1-phenylethoxy)benzenesulfonamide]	1.74 µM	0.099 µM	11.1 µM	10 µM	5.75 µM
CCC(Nc1ccc(S(=O)(=O)Nc2nccs2)cc1Cl)c1ccccn1 (stereo not drawn) [Example 81, 3-chloro-4-((1-(pyridin-2-yl)propyl)amino)-N-(thiazol-2-yl)benzenesulfonamide]	0.652 µM	0.143 µM	22.5 µM	10 µM	30 µM
CC[C@H](Nc1cc(F)c(S(=O)(=O)Nc2cscn2)cc1Cl)c1ccccc1 [Example 89, (S)-5-chloro-2-fluoro-4-((1-phenylpropyl)amino)-N-(thiazol-4-yl)benzenesulfonamide]	0.948 µM	0.239 µM	3.85 µM	10 µM	9.09 µM
O=S(=O)(Nc1nccs1)c1ccc(N[C@@H](CO)c2ccccc2)c(Cl)c1 [Example 91, (R)-3-chloro-4-((2-hydroxy-1-phenylethyl)amino)-N-(thiazol-2-yl)benzenesulfonamide]	0.927 µM	0.341 µM	10.7 µM	10 µM	30 µM
O=S(=O)(Nc1nccs1)c1ccc(NC2(c3ccccc3)CCC2)c(Cl)c1 [Example 104, 3-chloro-4-((1-phenylcyclobutyl)amino)-N-(thiazol-2-yl)benzenesulfonamide]	0.582 µM	0.153 µM	4.43 µM	4.51 µM	6.29 µM
O=S(=O)(Nc1nccs1)c1cc(Cl)c(NC2(c3ccccc3)CCC2)cc1F [Example 105, 5-chloro-2-fluoro-4-((1-phenylcyclobutyl)amino)-N-(thiazol-2-yl)benzenesulfonamide]	0.564 µM	0.027 µM	3.73 µM	3.6 µM	10.6 µM
C[C@H](Oc1cc(F)c(S(=O)(=O)Nc2nccs2)cc1Cl)c1cccc(F)c1 [Example 114, (S)-5-chloro-2-fluoro-4-(1-(3-fluorophenyl)ethoxy)-N-(thiazol-2-yl)benzenesulfonamide]	0.977 µM	0.255 µM	5.05 µM	10 µM	4.64 µM
C[C@H](Oc1cc(F)c(S(=O)(=O)Nc2nccs2)cc1Cl)c1ccccc1 [Example 115, (S)-5-chloro-2-fluoro-4-(1-phenylethoxy)-N-(thiazol-2-yl)benzenesulfonamide]	1.39 µM	0.135 µM	17.5 µM	10 µM	9.93 µM
C[C@H](Oc1cc(F)c(S(=O)(=O)Nc2nccs2)cc1Cl)c1ccccc1Cl [Example 117, (S)-5-chloro-4-(1-(2-chlorophenyl)ethoxy)-2-fluoro-N-(thiazol-2-yl)benzenesulfonamide]	0.53 µM	0.055 µM	5.89 µM	6.78 µM	6.22 µM
C[C@H](Oc1cc(F)c(S(=O)(=O)Nc2nccs2)cc1Cl)c1c(F)cccc1F [Example 119, (S)-5-chloro-4-(1-(2,6-difluorophenyl)ethoxy)-2-fluoro-N-(thiazol-2-yl)benzenesulfonamide]	0.31 µM	0.023 µM	5.72 µM	8.94 µM	1.82 µM
C[C@H](Oc1cc(F)c(S(=O)(=O)Nc2cscn2)cc1Cl)c1c(F)cccc1F [Example 120, (S)-5-chloro-4-(1-(2,6-difluorophenyl)ethoxy)-2-fluoro-N-(thiazol-4-yl)benzenesulfonamide]	1.39 µM	0.717 µM	24.3 µM	10 µM	2.42 µM
O=S(=O)(Nc1nccs1)c1cc(Cl)c(OCc2ccccc2F)cc1F [Example 122, 5-chloro-2-fluoro-4-((2-fluorobenzyl)oxy)-N-(thiazol-2-yl)benzenesulfonamide]	1.65 µM	0.121 µM	30 µM	10 µM	30 µM
C[C@H](Oc1cc(F)c(S(=O)(=O)Nc2cscn2)cc1Cl)c1ccccc1Cl [Example 123, (S)-5-chloro-4-(1-(2-chlorophenyl)ethoxy)-2-fluoro-N-(thiazol-4-yl)benzenesulfonamide]	1.17 µM	0.716 µM	5.78 µM	10 µM	2.15 µM
O=S(=O)(Nc1cscn1)c1c(F)cc(NCc2c(Cl)cccc2CN2CC(F)C2)cc1F [Example 129, 4-((2-chloro-6-((3-fluoroazetidin-1-yl)methyl)benzyl)amino)-2,6-difluoro-N-(thiazol-4-yl)benzenesulfonamide]	0.322 µM	0.252 µM	4.24 µM	10 µM	30 µM
O=S(=O)(Nc1cccc(F)n1)c1cc(Cl)c(NCc2c(F)ccc(F)c2CN2CCC2)cc1F [Example 131, 4-((2-(azetidin-1-ylmethyl)-3,6-difluorobenzyl)amino)-5-chloro-2-fluoro-N-(6-fluoropyridin-2-yl)benzenesulfonamide]	0.376 µM	0.126 µM	8.33 µM	10 µM	10.9 µM

Continued, in another order:

IC50 [1]	IC50 [2]	IC50 [3]	IC50 [4]	Structure (SMILES)	IC50 [5]
0.521 µM	0.052 µM	2.52 µM	1.85 µM	O=S(=O)(Nc1nccs1)c1cc(Cl)c(NC(CN2CCOCC2)c2ccccc2)cc1F (stereo not drawn) [Example 74, 5-chloro-2-fluoro-4-((2-morpholino-1-phenylethyl)amino)-N-(thiazol-2-yl)benzenesulfonamide 2,2,2-trifluoroacetate]	30 µM
0.234 µM	0.015 µM	4.17 µM	3.1 µM	C[C@H](Nc1cc(F)c(S(=O)(=O)Nc2nccs2)cc1Cl)c1ccccc1Cl [Example 78, (S)-5-chloro-4-((1-(2-chlorophenyl)ethyl)amino)-2-fluoro-N-(thiazol-2-yl)benzenesulfonamide]	7.01 µM
0.237 µM	0.039 µM	1.54 µM	4.41 µM	C[C@H](Nc1ccc(S(=O)(=O)Nc2nccs2)cc1Cl)c1ccccc1F [Example 79, (S)-3-chloro-4-((1-(2-fluorophenyl)ethyl)amino)-N-(thiazol-2-yl)benzenesulfonamide]	2.55 µM
1.04 µM	0.184 µM	30 µM	10 µM	C[C@H](Oc1ccc(S(=O)(=O)Nc2ncns2)cc1Cl)c1ccccc1 [Example 88, (S)-3-chloro-4-(1-phenylethoxy)-N-(1,2,4-thiadiazol-5-yl)benzenesulfonamide]	18.2 µM
0.239 µM	0.098 µM	12.6 µM	10 µM	O=S(=O)(Nc1cscn1)c1cc(Cl)c(NCc2cccc3ccncc23)cc1F [Example 96, 5-chloro-2-fluoro-4-((isoquinolin-8-ylmethyl)amino)-N-(thiazol-4-yl)benzenesulfonamide 2,2,2-trifluoroacetate]	16 µM
0.814 µM	0.462 µM	9.57 µM	10 µM	C[C@H](Oc1cc(F)c(S(=O)(=O)Nc2cscn2)cc1Cl)c1ccccc1F [Example 101, (S)-5-chloro-2-fluoro-4-(1-(2-fluorophenyl)ethoxy)-N-(thiazol-4-yl)benzenesulfonamide]	4.66 µM
2.91 µM	0.796 µM	16.6 µM	10 µM	O=S(=O)(Nc1nccs1)c1ccc(NC2(c3ccccc3)COC2)c(Cl)c1 [Example 103, 3-chloro-4-((3-phenyloxetan-3-yl)amino)-N-(thiazol-2-yl)benzenesulfonamide]	28.8 µM
0.656 µM	0.138 µM	10.3 µM	8.62 µM	O=S(=O)(Nc1nccs1)c1cc(Cl)c(NC2(c3ccccc3F)CCC2)cc1F [Example 107, 5-chloro-2-fluoro-4-((1-(2-fluorophenyl)cyclobutyl)amino)-N-(thiazol-2-yl)benzenesulfonamide]	7.4 µM
0.307 µM	0.1 µM	11.7 µM	10 µM	Cc1c(NCc2c(F)cccc2CN2CC(F)C2)ccc(S(=O)(=O)Nc2cscn2)c1F [Example 130, 2-fluoro-4-((2-fluoro-6-((3-fluoroazetidin-1-yl)methyl)benzyl)amino)-3-methyl-N-(thiazol-4-yl)benzenesulfonamide]	17.7 µM
